According to US10618903B2, “Heteroaryl substituted aminopyridine compounds” (BRISTOL-MYERS SQUIBB COMPANY, priority 2015, dated 2020):

Columns and labels:
IRAK4 = IRAK4 (Homo sapiens (Human), UniProt Q9NWZ3); test: IRAK4 Inhibition Assay; type: biochemical; conditions: ATP 500 μM; IRAK4 0.6 nM
Outline: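 Mobility-shift kinase assay: 0.6 nM IRAK4, 500 μM ATP, 1.5 μM fluorescent peptide, 60 min, room temperature. Percent inhibition was normalised between enzyme-free and DMSO-only wells.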

Caco Permeability Assay = type: in vitro ADME; conditions: human, Caco-2, Caco-2 cells, 3 μM compound
Method: Thirteen to 27 days prior to assay, Caco-2 cells were seeded onto collagen-coated polycarbonate filter membranes in 24-well transwell plates at a density of 1.45×10^5 cells/cm^2, approximately 4.8×10^4 cells per well. The cells were grown in a culture medium consisting of DMEM supplemented with 10% fetal bovine serum, 10 mM HEPES, 1% nonessential amino acids, 2 mM L-glutamine, 100 U/mL penicillin-G, and 100 μg/mL streptomycin. The culture medium was replaced every 3 days and the cells were maintained at 37° C. in a 95% relative humidity and 5% CO2 atmosphere. The cells were evaluated for tight junction formation just prior to assay. The test compound was solubilized to 10 mM in 100% DMSO and diluted to 3 μM in assay buffer. Permeability studies were initiated by adding 200 μL assay buffer plus/minus compound to the apical transwell compartment and 600 μL assay buffer plus/minus compound to the basolateral compartment of the 24-well transwell low-binding cluster plate. For apical-to-basolateral (A to B) permeability (absorptive direction), buffer containing compound was placed in the apical compartment (donor wells), while buffer alone was placed in the corresponding basolateral compartments (receiver wells). For basolateral-to-apical (B to A) permeability (secretive direction), buffer containing compound was placed in the basolateral compartment (donor wells), while buffer alone was placed in the corresponding apical compartments (receiver wells). Transwells were then incubated for 2 hours at 37° C. in a 95% relative humidity and 5% CO2 atmosphere with gentle agitation. Following incubation, 100 μL was removed from each apical and basolateral compartment and transferred to 96-well low binding plates that had been previously loaded with 100 µL/well of acetonitrile containing 250 nM propranolol, 250 nM diclofenac, and 500 nM tolbutamide as internal standards. The samples were subsequently analyzed by LC-MS/MS to determine concentrations of compound.

[1] = tested on: IL-6 levels in human whole blood stimulated with a TLR2 agonist; test: IRAK4 Whole Blood Assay (lipoteichoic acid/TLR2-stimulated IL-6); type: cell-based; conditions: lipoteichoic acid 10 μg/mL, IL-6 readout
Outline: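 IL-6 was quantified by cytometric bead assay in supernatants of human blood (ACD-A) stimulated for 5 h with lipoteichoic acid at 10 μg/mL final. Compound exposure preceded stimulation for 60 min at 37 °C, 5% CO2.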

Chain of IRAK4 (Q9NWZ3 whole entry): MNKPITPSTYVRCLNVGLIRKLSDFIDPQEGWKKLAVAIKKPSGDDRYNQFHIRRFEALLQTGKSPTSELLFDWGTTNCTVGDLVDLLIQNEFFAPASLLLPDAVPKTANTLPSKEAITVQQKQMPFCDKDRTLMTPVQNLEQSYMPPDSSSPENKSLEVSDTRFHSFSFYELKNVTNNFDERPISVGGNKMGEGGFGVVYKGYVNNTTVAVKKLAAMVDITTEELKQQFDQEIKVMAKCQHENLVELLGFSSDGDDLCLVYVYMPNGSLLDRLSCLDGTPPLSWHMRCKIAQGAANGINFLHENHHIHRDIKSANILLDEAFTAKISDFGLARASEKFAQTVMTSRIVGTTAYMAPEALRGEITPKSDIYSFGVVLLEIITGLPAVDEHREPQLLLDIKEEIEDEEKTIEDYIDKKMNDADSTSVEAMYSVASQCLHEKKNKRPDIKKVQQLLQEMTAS

Structure (SMILES) | IC50 (IRAK4) [nM] | Papp at 2 h, 3 µM (Caco Permeability Assay) [×10⁻⁶ cm/s] | EC50 [1] [nM] | EC50 ([1]; Homo sapiens) [nM]
CC(C)(O)[C@H](F)CNC(=O)c1cnc(-c2cnn3cc(Cl)cnc23)cc1Nc1cnn(CC(F)(F)F)c1 [Example 226, (R)-6-(6-chloropyrazolo[1,5-a]pyrimidin-3-yl)-N-(2-fluoro-3-hydroxy-3-methylbutyl)-4-((1-(2,2,2-trifluoroethyl)-1H-pyrazol-4-yl)amino)nicotinamide] | 3 | 3.6 | 210 | 
CC(F)(F)Cn1cc(Nc2cc(-c3cnn4cc(C#N)cnc34)ncc2C(=O)NC[C@@H](F)C(C)(C)O)cn1 [Example 238, (R)-6-(6-cyanopyrazolo[1,5-a]pyrimidin-3-yl)-4-((1-(2,2-difluoropropyl)-1H-pyrazol-4-yl)amino)-N-(2-fluoro-3-hydroxy-3-methylbutyl)nicotinamide] | 2 | 2.1 |  | 220
CC(C)(O)[C@H](F)CNC(=O)c1cnc(-c2cnn3cc(C#N)cnc23)cc1Nc1cnn(C2CC2)c1 [Example 248, (R)-6-(6-cyanopyrazolo[1,5-a]pyrimidin-3-yl)-4-((1-cyclopropyl-1H-pyrazol-4-yl)amino)-N-(2-fluoro-3-hydroxy-3-methylbutyl)nicotinamide] | 2 | < 1.5 |  | 370
CC(C)(O)[C@H](F)CNC(=O)c1cnc(-c2cnn3cc(C#N)cnc23)cc1Nc1cnn(CC2CC2)c1 [Example 249, (R)-6-(6-cyanopyrazolo[1,5-a]pyrimidin-3-yl)-4-((1-(cyclopropylmethyl)-1H-pyrazol-4-yl)amino)-N-(2-fluoro-3-hydroxy-3-methylbutyl)nicotinamide] | 2 | < 1.5 |  | 400
CC(C)(O)[C@H](F)CNC(=O)c1cnc(-c2cnn3cc(Cl)cnc23)cc1Nc1cnn(C2CCC2)c1 [Example 250, (R)-6-(6-chloropyrazolo[1,5-a]pyrimidin-3-yl)-4-((1-cyclobutyl-1H-pyrazol-4-yl)amino)-N-(2-fluoro-3-hydroxy-3-methylbutyl)nicotinamide] | 1 | 6.6 |  | 200
CC(C)(F)[C@H](F)CNC(=O)c1cnc(-c2cnc3cc(Cl)cnn23)cc1NC1COC1 [Example 189, (R)-6-(7-chloroimidazo[1,2-b]pyridazin-3-yl)-N-(2,3-difluoro-3-methylbutyl)-4-(oxetan-3-ylamino)nicotinamide] | 7 | 31.2 |  | 490
CNC(=O)c1ccc(Nc2cc(-c3cnn4cc(Cl)cnc34)ncc2C(=O)NC[C@@H](F)C(C)(C)O)cc1 [Example 34, (R)-6-(6-chloropyrazolo[1,5-a]pyrimidin-3-yl)-N-(2-fluoro-3-hydroxy-3-methylbutyl)-4-((4-(methylcarbamoyl)phenyl)amino)nicotinamide] | 2 | < 1.5 |  | 360
CC(C)(O)[C@H](F)CNC(=O)c1cnc(-c2cnn3cc(Cl)cnc23)cc1Nc1ccc(C(N)=O)cc1 [Example 33, (R)-4-((4-carbamoylphenyl)amino)-6-(6-chloropyrazolo[1,5-a]pyrimidin-3-yl)-N-(2-fluoro-3-hydroxy-3-methylbutyl) nicotinamide] | 2 | < 1.5 |  | 350
CC(C)Nc1cc(-c2cnc3cc(C#N)cnn23)ncc1C(=O)NCCC(C)(C)O [Example 186, 6-(7-cyanoimidazo[1,2-b]pyridazin-3-yl)-N-(3-hydroxy-3-methylbutyl)-4-(isopropylamino) nicotinamide] | 5 | 12.2 |  | 250
CC(C)(O)[C@H](F)CNC(=O)c1cnc(-c2cnn3cc(C#N)cnc23)cc1NCC(F)F [Example 171, (R)-6-(6-cyanopyrazolo[1,5-a]pyrimidin-3-yl)-4-((2,2-difluoroethyl)amino)-N-(2-fluoro-3-hydroxy-3-methylbutyl)nicotinamide] | 6 | 1.9 |  | 360
CC1(Nc2cc(-c3cnc4cc(Cl)cnn34)ncc2C(=O)NC[C@H](F)C(C)(C)O)CC1 [Example 198, (S)-6-(7-chloroimidazo[1,2-b]pyridazin-3-yl)-N-(2-fluoro-3-hydroxy-3-methylbutyl)-4-((1-methylcyclopropyl)amino) nicotinamide] | 1 | 18.4 |  | 470
CC(C)(O)[C@H]1CC[C@H](Nc2cc(-c3cnn4cc(Cl)cnc34)ncc2C(=O)NC[C@@H](F)C(C)(C)O)C1 [Example 50, 6-(6-chloropyrazolo[1,5-a]pyrimidin-3-yl)-N—((R)-2-fluoro-3-hydroxy-3-methylbutyl)-4-(((1S,3S)-3-(2-hydroxypropan-2-yl)cyclopentyl)amino)nicotinamide] | 2 | 3 |  | 690
CC(C)Nc1cc(-c2cnc3cc(C#N)cnn23)ncc1C(=O)NCCc1ccccn1 [Example 216, 6-(7-cyanoimidazo[1,2-b]pyridazin-3-yl)-4-(isopropylamino)-N-(2-(pyridin-2-yl)ethyl)nicotinamide] | 8 | 23.9 |  | 310
CC(C)(F)[C@H](F)CNC(=O)c1cnc(-c2cnc3cc(C#N)cnn23)cc1Nc1cnn(CC(F)F)c1 [Example 258, (R)-6-(7-cyanoimidazo[1,2-b]pyridazin-3-yl)-N-(2,3-difluoro-3-methylbutyl)-4-((1-(2,2-difluoroethyl)-1H-pyrazol-4-yl)amino)nicotinamide] | 2 | 5.9 |  | 180
CCNc1cc(-c2cnn3cc(Cl)cnc23)ncc1C(=O)NC[C@@H](F)C(C)(C)O [Example 56, (R)-6-(6-chloropyrazolo[1,5-a]pyrimidin-3-yl)-4-(ethylamino)-N-(2-fluoro-3-hydroxy-3-methylbutyl) nicotinamide] | 5 | 14.3 |  | 360
CC(C)(O)[C@H](F)CNC(=O)c1cnc(-c2cnn3cc(Cl)cnc23)cc1N[C@@H]1COC[C@H]1F [Example 44, 6-(6-chloropyrazolo[1,5-a]pyrimidin-3-yl)-N—((R)-2-fluoro-3-hydroxy-3-methylbutyl)-4-(((3R,4S)-4-fluorotetrahydrofuran-3-yl)amino)nicotinamide] | 7 | 5.3 |  | 2730
CC(C)(F)Cn1cc(Nc2cc(-c3cnn4cc(Cl)cnc34)ncc2C(=O)NC[C@@H](F)C(C)(C)O)cn1 [Example 227, (R)-6-(6-chloropyrazolo[1,5-a]pyrimidin-3-yl)-4-((1-(2-fluoro-2-methylpropyl)-1H-pyrazol-4-yl)amino)-N-(2-fluoro-3-hydroxy-3-methylbutyl)nicotinamide] | 2 | 4 |  | 170
CC(C)(O)CNc1cc(-c2cnn3cc(Cl)cnc23)ncc1C(=O)NC[C@@H](F)C(C)(C)O [Example 58, (R)-6-(6-chloropyrazolo[1,5-a]pyrimidin-3-yl)-N-(2-fluoro-3-hydroxy-3-methylbutyl)-4-((2-hydroxy-2-methylpropyl)amino)nicotinamide] | 14 | < 1.5 |  | 350
CC(C)(O)[C@H](F)CNC(=O)c1cnc(-c2cnn3cc(Cl)cnc23)cc1NC1CCC(F)C1 (stereo partly drawn) [Example 83, 6-(6-chloropyrazolo[1,5-a]pyrimidin-3-yl)-N—((R)-2-fluoro-3-hydroxy-3-methylbutyl)-4-((3-fluorocyclopentyl)amino)nicotinamide] | 1 | 15.9 | 810 | 
CC(C)(O)[C@H](F)CNC(=O)c1cnc(-c2cnc3cc(C#N)cnn23)cc1Nc1cnn(CCCF)c1 [Example 281, (R)-6-(7-cyanoimidazo[1,2-b]pyridazin-3-yl)-N-(2-fluoro-3-hydroxy-3-methylbutyl)-4-((1-(3-fluoropropyl)-1H-pyrazol-4-yl)amino)nicotinamide] | 2 | < 1.5 |  | 290
C[C@@H](CO)Nc1cc(-c2cnn3cc(Cl)cnc23)ncc1C(=O)NC[C@@H](F)C(C)(C)O [Example 31, 6-(6-chloropyrazolo[1,5-a]pyrimidin-3-yl)-N—((R)-2-fluoro-3-hydroxy-3-methylbutyl)-4-(((S)-1-hydroxypropan-2-yl)amino)nicotinamide] | 7 | < 1.5 |  | 140
